Target: human NAMPT (Homo sapiens (Human), UniProt P43490)
Experiment: NMN fluorescence biochemical assay (human recombinant NAMPT enzyme assay)
Method in brief: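 NMN formed was detected by fluorescence (Ex/Em 355/460 nm) after acetophenone, KOH and formic acid derivatization. The cell-free reaction ran 60 min at ambient temperature with 6 nM human NAMPT, 150 μM nicotinamide, 20 μM PRPP, 2.5 mM ATP, pH 7.2 HEPES, and compound dose responses.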

human NAMPT, sequence (P43490 whole entry): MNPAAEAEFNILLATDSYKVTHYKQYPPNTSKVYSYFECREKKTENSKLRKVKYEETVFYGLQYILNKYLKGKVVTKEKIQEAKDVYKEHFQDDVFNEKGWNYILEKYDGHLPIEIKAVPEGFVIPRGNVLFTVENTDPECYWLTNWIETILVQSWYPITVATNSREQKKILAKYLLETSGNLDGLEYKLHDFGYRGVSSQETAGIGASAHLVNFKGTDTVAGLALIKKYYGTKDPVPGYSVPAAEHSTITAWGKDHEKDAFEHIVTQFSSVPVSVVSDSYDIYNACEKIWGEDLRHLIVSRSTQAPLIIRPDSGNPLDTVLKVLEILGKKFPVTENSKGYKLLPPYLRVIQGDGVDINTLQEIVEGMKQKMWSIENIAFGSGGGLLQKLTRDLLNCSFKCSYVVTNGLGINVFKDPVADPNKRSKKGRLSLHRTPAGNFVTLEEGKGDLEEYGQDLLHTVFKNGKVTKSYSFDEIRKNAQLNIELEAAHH

Row | AC1.4 Human [µM] | EC50 [µM] | SMILES
1 | 0.13 | 6.31 | CC(=O)N1CCC(Cc2ccc(NC(=O)OCc3cnco3)cc2)CC12CC2 (centres unmarked) [Compound 444, oxazol-5-ylmethyl (4-((4-acetyl-4-azaspiro[2.5]octan-7-yl)methyl)phenyl)carbamate]
2 | 6.26 | 56.8 | COc1ccc(COC(=O)Nc2ccc(CN3CCN(C4COC4)CC3)cc2)cc1 [Compound 318, (4-methoxyphenyl)methyl N-(4-{[4-(oxetan-3-yl)piperazin-1-yl]methyl}phenyl)carbamate]
3 | 0.83 | 4.31 | C[C@H](NC(=O)N1CCCC1)c1ccc(NC(=O)OCc2ccc(Cl)cc2)cc1 [Compound 103, 4-chlorobenzyl (S)-(4-(1-(pyrrolidine-1-carboxamido)ethyl)phenyl)carbamate]
4 | 0.15 | 16 | Cc1ccc(C(=O)NCc2ccc(NC(=O)OCc3cn[nH]c3)cc2)cn1 [Compound 9, (1H-pyrazol-4-yl)methyl (4-((6-methylnicotinamido)methyl)phenyl)carbamate]
5 | 0.46 | 1.88 | Cc1cnn(C)c1C(=O)NCc1ccc(NC(=O)OCc2ccc(Cl)cc2)cc1 [Compound 45, (4-chlorophenyl)methyl N-(4-{[(2,4-dimethylpyrazol-3-yl)formamido]methyl}phenyl)carbamate]
6 | 5.55 | 25.6 | O=C(Nc1ccc(C2CCN(C3COC3)CC2)cc1)OCc1cnco1 [Compound 313, 1,3-oxazol-5-ylmethyl N-{4-[1-(oxetan-3-yl)piperidin-4-yl]phenyl}carbamate]
7 | 1.38 | 5.87 | COCCn1nccc1C(=O)NCc1ccc(NC(=O)OCc2ccc(Cl)cc2)cc1 [Compound 166, (4-chlorophenyl)methyl N-[4-({[2-(2-methoxyethyl)pyrazol-3-yl]formamido}methyl)phenyl]carbamate]
8 | 0.45 | 4.19 | C[C@H](NC(=O)c1ccncc1F)c1ccc(NC(=O)OCc2ccc(Cl)cc2)cc1 [Compound 44, (4-chlorophenyl)methyl N-{4-[(1S)-1-[(3-fluoropyridin-4-yl)formamido]ethyl]phenyl}carbamate]
9 | 0.98 | 42.6 | O=C(Nc1ccc(CC2CC3(C2)CN(C2COC2)C3)c(F)c1)OCc1cnco1 [Compound 397, oxazol-5-ylmethyl (3-fluoro-4-((2-(oxetan-3-yl)-2-azaspiro[3.3]heptan-6-yl)methyl)phenyl)carbamate]
10 | 9.87 | 9.33 | O=C(Cn1cccn1)NCc1ccc(NC(=O)OCc2ccc(Cl)cc2)cc1 [Compound 334, (4-chlorophenyl)methyl N-(4-{[2-(pyrazol-1-yl)acetamido]methyl}phenyl)carbamate]
11 | 1.64 | 18.6 | C[C@H](NC(=O)C1(C)COC1)c1ccc(NC(=O)OCc2ccc(Cl)cc2)cc1 [Compound 189, 4-chlorobenzyl (S)-(4-(1-(3-methyloxetane-3-carboxamido)ethyl)phenyl)carbamate]
12 | 0.66 | 23.6 | CC(C)(C)OC(=O)N1CCC(Cc2ccc(NC(=O)OCc3cnco3)cc2)CC1 [Compound 79, tert-butyl 4-(4-(((oxazol-5-ylmethoxy)carbonyl)ami-no)benzyl)piperidine-1-carboxylate]
13 | 2.22 | 44.9 | O=C1CN(C(=O)Cc2ccc(NC(=O)OCc3ccc(Cl)cc3)cc2)CCN1 [Compound 235, (4-chlorophenyl)methyl N-{4-[2-oxo-2-(3-oxopiperazin-1-yl)ethyl]phenyl}carbamate]
14 | 1.15 | 4.51 | Cc1noc(C(=O)NCc2ccc(NC(=O)OCc3ccc(Cl)cc3)cc2)c1C [Compound 140, (4-chlorophenyl)methyl N-(4-{[(3,4-dimethyl-1,2-oxazol-5-yl)formamido]methyl}phenyl)carbamate]
15 | 1.20 | 2.35 | Cc1ncc(C(=O)NCc2ccc(NC(=O)OCc3ccc(Cl)cc3)cc2)cc1F [Compound 146, (4-chlorophenyl)methyl N-(4-{[(5-fluoro-6-methylpyridin-3-yl)formamido]methyl}phenyl)carbamate]
16 | 1.07 | 3.28 | COc1cnn(C)c1C(=O)NCc1ccc(NC(=O)OCc2ccc(Cl)cc2)cc1 [Compound 135, (4-chlorophenyl)methyl N-(4-{[(4-methoxy-2-methylpyrazol-3-yl)formamido]methyl}phenyl)carbamate]
17 | 3.72 | 19.2 | CN1CCN(Cc2ccc(NC(=O)OCc3ccc(Cl)cc3)cc2)CC1=O [Compound 284, (4-chlorophenyl)methyl N-{4-[(4-methyl-3-oxopiperazin-1-yl)methyl]phenyl}carbamate]

Row | AC1.4 Human [µM] | EC50 [µM] | SMILES
18 | 2.05 | 17.6 | O=C(Nc1ccc(CN2CCN(C3COC3)CC2)cc1)OCc1ccc(Cl)cc1 [Compound 223, (4-chlorophenyl)methyl N-(4-{[4-(oxetan-3-yl)piperazin-1-yl]methyl}phenyl)carbamate]
19 | 1.47 | 8.92 | O=C(Nc1ccc(CNC(=O)c2cncnc2)cc1)OCc1ccc(Cl)cc1 [Compound 175, (4-chlorophenyl)methyl N-{4-[(pyrimidin-5-ylformamido)methyl]phenyl}carbamate]
20 | 9.58 | 38.6 | O=C(Nc1ccc(Cc2ccncc2)cc1)OCc1cnoc1 [Compound 333, isoxazol-4-ylmethyl (4-(pyridin-4-ylmethyl)phenyl)carbamate]
21 | 22.88 | 46.3 | CN(C1COC1)S(=O)(=O)c1ccc(NC(=O)OCc2ccc(Cl)cc2)cc1 [Compound 352, 4-chlorobenzyl (4-(N-methyl-N-(oxetan-3-yl)sulfamoyl)phenyl)carbamate]
22 | 22.18 | 37.3 | O=C(Nc1ccc(Cc2cncs2)cc1)OCc1ccc(Cl)cc1 [Compound 351, 4-chlorobenzyl (4-(thiazol-5-ylmethyl)phenyl)carbamate]
23 | 1.54 | 11 | Cc1nc(C)c(C(=O)N(C)Cc2ccc(NC(=O)OCc3ccc(Cl)cc3)cc2)o1 [Compound 182, (4-chlorophenyl)methyl N-(4-{[1-(2,4-dimethyl-1,3-oxazol-5-yl)-N-methylformamido]methyl}phenyl)carbamate]
24 | 6.04 | 28.6 | O=C(Nc1ccc(CC2CCN(C3COC3)CC2)cc1)OCc1ccncc1 [Compound 316]
25 | 1.09 | 39.9 | CC(C)C(=O)N1CC2(CC(c3ccc(NC(=O)OCc4cnco4)cc3)C2)C1 [Compound 357, oxazol-5-ylmethyl (4-(2-isobutyryl-2-azaspiro[3.3]heptan-6-yl)phenyl)carbamate]
26 | 0.57 | 2.64 | NC(=O)N1CCC(Cc2ccc(NC(=O)OCc3ccc(Cl)cc3)cc2)CC1 [Compound 62, 4-chlorobenzyl (4-((1-carbamoylpiperidin-4-yl)methyl)phenyl)carbamate]
27 | 1.78 | 2.12 | Cc1cc(C(=O)N[C@@H](C)c2ccc(NC(=O)OCc3ccc(Cl)cc3)cc2)on1 [Compound 200, 4-chlorobenzyl (S)-(4-(1-(3-methylisoxazole-5-carboxamido)ethyl)phenyl)carbamate]
28 | 3.81 | 20.6 | O=C(Nc1ccc(CC(=O)N2CCCC[C@@H]2CO)cc1)OCc1ccc(Cl)cc1 [Compound 287, (4-chlorophenyl)methyl N-(4-{2-[(2R)-2-(hydroxymethyl)piperidin-1-yl]-2-oxoethyl}phenyl)carbamate]
29 | 2.45 | 16.5 | CC(O)(c1ccncc1)c1ccc(NC(=O)OCc2ccc(Cl)cc2)cc1 (centres unmarked) [Compound 247, 4-chlorobenzyl (4-(1-hydroxy-1-(pyridin-4-yl)ethyl)phenyl)carbamate]
30 | 0.37 | 1.51 | O=C(Nc1ccc(CN2CCN(c3ccccn3)CC2)cc1)OCc1ccc(Cl)cc1 [Compound 29, (4-chlorophenyl)methyl N-(4-{[4-(pyridin-2-yl)piperazin-1-yl]methyl}phenyl)carbamate]
31 | 5.91 | 7.32 | Cn1cc(CC(=O)NCc2ccc(NC(=O)OCc3ccc(Cl)cc3)cc2)cn1 [Compound 315, (4-chlorophenyl)methyl N-(4-{[2-(1-methylpyrazol-4-yl)acetamido]methyl}phenyl)carbamate]
32 | 0.64 | 0.89 | CCc1ccc(C(=O)N[C@@H](C)c2ccc(NC(=O)OCc3ccc(Cl)cc3)cc2)cn1 [Compound 76, (4-chlorophenyl)methyl N-{4-[(1S)-1-[(6-ethylpyridin-3-yl)formamido]ethyl]phenyl}carbamate]
33 | 1.25 | 5.89 | O=C(Nc1ccc(C2CCS(=O)(=O)CC2)cc1)OCc1ccc(Cl)cc1 [Compound 151]
34 | 0.18 | 7.06 | O=C(Nc1ccc(CC2CCN(S(=O)(=O)C3CCC3)CC2)cc1)OCc1cnco1 [Compound 459, oxazol-5-ylmethyl (4-((1-(cyclobutylsulfonyl)piperidin-4-yl)methyl)phenyl)carbamate]

Row | SMILES | AC1.4 Human [µM] | EC50 [µM]
35 | O=C(Nc1ccc(CC(=O)N2CCN(C3COC3)CC2)cc1)OCc1ccc(Cl)cc1 [Compound 194, (4-chlorophenyl)methyl N-(4-{2-[4-(oxetan-3-yl)piperazin-1-yl]-2-oxoethyl}phenyl)carbamate] | 1.73 | 26.7
36 | CN(C)C(=O)N1CCC(Cc2ccc(NC(=O)OCc3ccc(Cl)cc3)cc2)CC1 [Compound 58, 4-chlorobenzyl (4-((1-(dimethylcarbamoyl)piperidin-4-yl)methyl)phenyl)carbamate] | 0.55 | 1.73
37 | CS(=O)(=O)N1CC2CC(C1)C2Cc1ccc(NC(=O)OCc2cnco2)cc1 (centres unmarked) [Compound 434, oxazol-5-ylmethyl (4-((3-(methylsulfonyl)-3-azabicyclo[3.1.1]heptan-6-yl)methyl)phenyl)carbamate] | 0.06 | 2.11
